# Measurements: PMC8058344, “ARIH1 signaling promotes anti-tumor immunity by targeting PD-L1 for proteasomal degradation” (Nature Communications, 2021)
# Biological target: PDGFRa (Homo sapiens, UniProt P16234)
# Assay: In vitro kinase specificity profiling
# Format: biochemical
# Sequence of PDGFRa (P16234 24-1089, species assumed): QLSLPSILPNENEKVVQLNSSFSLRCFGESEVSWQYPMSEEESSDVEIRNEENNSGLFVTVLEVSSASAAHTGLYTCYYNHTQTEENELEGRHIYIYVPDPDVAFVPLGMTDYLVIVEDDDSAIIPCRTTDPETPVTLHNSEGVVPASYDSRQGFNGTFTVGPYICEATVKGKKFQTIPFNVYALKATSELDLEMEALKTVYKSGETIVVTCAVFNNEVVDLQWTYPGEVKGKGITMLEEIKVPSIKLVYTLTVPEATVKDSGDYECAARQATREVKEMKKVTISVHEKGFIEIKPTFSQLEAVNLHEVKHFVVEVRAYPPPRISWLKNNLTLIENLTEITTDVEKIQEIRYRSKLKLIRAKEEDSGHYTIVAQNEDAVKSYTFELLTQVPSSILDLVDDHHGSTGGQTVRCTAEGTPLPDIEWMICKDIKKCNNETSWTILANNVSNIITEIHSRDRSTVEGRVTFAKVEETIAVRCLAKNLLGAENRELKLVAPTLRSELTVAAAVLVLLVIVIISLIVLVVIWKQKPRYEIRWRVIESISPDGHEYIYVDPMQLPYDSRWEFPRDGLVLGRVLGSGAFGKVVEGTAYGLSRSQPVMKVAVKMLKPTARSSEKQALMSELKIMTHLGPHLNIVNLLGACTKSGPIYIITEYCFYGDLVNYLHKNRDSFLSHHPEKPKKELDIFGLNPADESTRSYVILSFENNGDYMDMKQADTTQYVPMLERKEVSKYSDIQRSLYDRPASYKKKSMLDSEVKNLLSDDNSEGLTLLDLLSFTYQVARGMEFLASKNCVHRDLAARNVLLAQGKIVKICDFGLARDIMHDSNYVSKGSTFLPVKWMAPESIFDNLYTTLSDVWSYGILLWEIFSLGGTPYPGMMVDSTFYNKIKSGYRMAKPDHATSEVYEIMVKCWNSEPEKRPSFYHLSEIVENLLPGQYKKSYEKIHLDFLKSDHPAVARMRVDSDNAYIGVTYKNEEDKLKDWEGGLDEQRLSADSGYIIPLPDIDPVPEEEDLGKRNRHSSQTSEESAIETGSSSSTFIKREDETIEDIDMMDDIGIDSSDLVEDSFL
compound,measurement,value
C=CC(=O)Nc1cccc(Nc2nc(Nc3ccc(N4CCN(C)CC4)nc3OC)ncc2C(F)(F)F)c1 [ES-072],IC50,3.85 µM
